Converted amounts (≈) assume the structure as drawn. Counter-ions that a name gives are not always drawn. Like-named read-outs stand apart in the source and are kept apart here.
How the values were obtained:
[1] = system: Staphylococcus aureus Smith S-424; assay: Therapeutic treatment of bacterial infection in mice (ED50); format: in vivo; details: mice infected i.p. with S. aureus Smith S-424, 27.8 × 10^4 cells, single intramuscular injection immediately after inoculation; for ED50: Staphylococcus aureus, SMITHS424, im
Experimental: Said inoculum is corresponding to a 860-fold quantity of the LD50 dosage of S.aureus Smith S-424. A solution of the test compound in sterile, isotonic sodium chloride solution was intramuscularly injected into the infected mice once immediately after the inoculation of the bacterium at dosages of 0.1 mg, 0.05 mg, 0.025 mg, 0.0125 mg and 0.0063 mg of the test compound per mouse.

Mycobacterium 607 = assay: Minimum inhibitory concentration, serial dilution on nutrient agar; format: cell-based; details: 37° C, 41 hours
Experimental: (§1) Minimum inhibitory concentrations (mcg/ml) of the new compounds of the invention to various bacteria are estimated according to a standard serial dilution method using nutrient agar as the incubation medium, the incubation being made at 37° C for 41 hours.

[2] = system: Escherichia coli K-12 ML-1410; assay: as above; format: cell-based; details: 41 hours; for M.I.C.: 37° C; for MIC: K12ML1410, 37° C
Experimental: as §1

[3] = system: Pseudomonas aeruginosa A3; assay: as above; format: cell-based; details: 37° C, 41 hours
Experimental: as §1

[4] = system: Pseudomonas aeruginosa No.12; assay: as above; format: cell-based; details: 37° C, 41 hours
Experimental: as §1

[5] = system: Staphylococcus aureus FDA 209P; assay: as above; format: cell-based; details: for MIC: FDA209P
Experimental: as §1

[6] = system: Pseudomonas aeruginosa GN315; assay: as above; format: cell-based
Experimental: as §1

Shigella sonnei JS11746 = assay: as above; format: cell-based; details: 37° C, 41 hours
Experimental: as §1

Proteus vulgaris OX19 = assay: as above; format: cell-based; details: 37° C, 41 hours
Experimental: as §1

[7] = system: Escherichia coli K-12 R81; assay: as above; format: cell-based; details: for M.I.C.: Escherichia coli K-12 R81, nutrient agar, 37° C, 41 hours; for MIC: Escherichia coli, K12R81, 41 h
Experimental: as §1

[8] = system: Escherichia coli K-12 W677; assay: as above; format: cell-based; details: 41 hours; for M.I.C.: 37° C; for MIC: K12W677, 37° C
Experimental: as §1

[9] = system: Escherichia coli K-12 ML-1629; assay: as above; format: cell-based; details: 41 hours; for M.I.C.: 37° C; for MIC: K12ML1629, 37° C
Experimental: as §1

[10] = system: Klebsiella pneumoniae PCI602; assay: as above; format: cell-based; details: 37° C, 41 hours
Experimental: as §1

Escherichia coli K-12 = assay: as above; format: cell-based
Experimental: as §1

Bacillus subtilis PCI219 = assay: as above; format: cell-based
Experimental: as §1

[11] = system: Escherichia coli K-12 JR66/W677; assay: as above; format: cell-based; details: for M.I.C.: Escherichia coli K-12 JR66/W677, nutrient agar, 37° C, 41 hours; for MIC: Escherichia coli, K12JR66/W677, 41 h
Experimental: as §1

[12] = system: Escherichia coli K-12 MA290 R55; assay: as above; format: cell-based; details: for M.I.C.: Escherichia coli K-12 MA290 R55, nutrient agar, 37° C, 41 hours; for MIC: Escherichia coli, K12MA290R55, 41 h
Experimental: as §1

Bacillus subtilis = assay: Antibacterial potency by cup-assay method; format: cell-based; details: for antibacterial potency: assuming DKB (free base) has 1000 units/mg
mice = details: for LD50 value: intravenous, mice, six per group, 20% w/v in isotonic sodium chloride solution
in vivo = details: mouse, iv
[13] = system: some kanamycin-resistant bacteria and Pseudomonas aeruginosa; details: British Patent No. 1,349,302; cited from earlier work
[14] = Staphylococcus aureus FDA 209P, nutrient agar, 37° C, 41 hours
[15] = Pseudomonas aeruginosa GN315, nutrient agar, 37° C, 41 hours
[16] = Escherichia coli K-12, nutrient agar, 37° C, 41 hours
[17] = Bacillus subtilis PCI219, nutrient agar, 37° C, 41 hours
[18] = Staphylococcus aureus FDA 209P, nutrient agar, 37° C, 41 hours, read-out: M.I.C.
[19] = Pseudomonas aeruginosa GN315, nutrient agar, 37° C, 41 hours, read-out: M.I.C.
[20] = Bacillus subtilis PCI219, nutrient agar, 37° C, 41 hours, read-out: M.I.C.

Row | Molecule | M.I.C. (Mycobacterium 607) [µg/mL] | M.I.C. [2] [µg/mL] | M.I.C. [3] [µg/mL] | M.I.C. [4] [µg/mL] | M.I.C. [5, 14] [µg/mL] | M.I.C. [6, 15] [µg/mL] | M.I.C. (Shigella sonnei JS11746) [µg/mL] | M.I.C. (Proteus vulgaris OX19) [µg/mL] | M.I.C. [7] [µg/mL] | M.I.C. [8] [µg/mL] | M.I.C. [9] [µg/mL] | M.I.C. [10] [µg/mL] | M.I.C. (Escherichia coli K-12; [16]) [µg/mL] | M.I.C. (Bacillus subtilis PCI219; [17]) [µg/mL] | M.I.C. [11] [µg/mL] | M.I.C. [12] [µg/mL] | LD50 value (mice) [mg/kg] | MIC [4] [µg/mL] | MIC (Shigella sonnei JS11746) [µg/mL] | MIC (Proteus vulgaris OX19) [µg/mL] | also measured
1 | 3',4'-Dideoxykanamycin B-di-N-methanesulfonic acid sodium salt [DKB-di-N-methanesulfonic acid Na salt] | 0.39 | 0.78 | 0.78 | 1.56 | < 0.2 | > 100 | 0.78 | < 0.2 | 0.78 | 0.78 | 0.78 | 0.39 | 0.78 | < 0.2 | 50 | 50 | 4250 | – | – | – | ED50 value [1]: 1.15 mg/kg; antibacterial potency (Bacillus subtilis): 590 units/mg; acute toxicity relative to that of 3',4'-dideoxykanamycin B itself (mice; intravenous injection into mice, from Table 2): about 1/40
2 | 3',4'-Dideoxykanamycin B-di-N-methylmethane-sulfonic acid and its sodium salt | 0.39 | 0.78 | 0.78 | 1.56 | < 0.2 | > 100 | 0.78 | < 0.2 | 0.78 | 0.78 | 0.78 | 0.39 | 0.78 | < 0.2 | 50 | 50 | > 2000 | – | – | – | –
3 | 3',4'-Dideoxykanamycin B-mono-N-methanesulfonic acid and its sodium salt [DKB-mono-N-methanesulfonic acid Na salt] | 0.39 | 0.78 | 0.78 | 1.56 | < 0.2 | > 100 | 0.78 | < 0.2 | 0.78 | 0.78 | 0.78 | 0.39 | 0.78 | < 0.2 | 50 | 50 | > 1500 | – | – | – | –
4 | 3',4'-Dideoxykanamycin B-tri-N-methanesulfonic acid sodium salt [DKB-tri-N-methanesulfonic acid Na salt] | 0.78 | 0.78 | 0.78 | 3.12 | < 0.2 | > 100 | 1.56 | 0.39 | 0.78 | 0.78 | 0.78 | 0.39 | 0.78 | 0.2 | 100 | 100 | > 5000 | – | – | – | –
5 | O=S(=O)(O)C(NC[C@@H]1CC[C@@H](NC(c2ccccc2)S(=O)(=O)O)[C@@H](O[C@H]2[C@H](O)[C@@H](O[C@H]3O[C@H](CO)[C@@H](O)[C@H](NC(c4ccccc4)S(=O)(=O)O)[C@H]3O)[C@H](NC(c3ccccc3)S(=O)(=O)O)C[C@@H]2NC(c2ccccc2)S(=O)(=O)O)O1)c1ccccc1 (stereo partly drawn) [3',4'-Dideoxykanamycin B-penta-N-phenylmethanesulfonic acid sodium salt] | – | – | – | – | – | – | – | – | – | – | – | – | – | – | – | – | – | 3.12 | 1.56 | 0.39 | MIC (Mycobacterium 607): 0.78 µg/mL; MIC [2]: 0.78 µg/mL; MIC [3]: 0.78 µg/mL; MIC [5, 18]: < 0.2 µg/mL; MIC [6, 19]: > 100 µg/mL; MIC [7]: 0.78 µg/mL; MIC [8]: 0.78 µg/mL; MIC [9]: 0.39 µg/mL; MIC [10]: 0.39 µg/mL; MIC (Escherichia coli K-12; K12, Escherichia coli K-12, nutrient agar, 37° C, 41 hours, read-out: M.I.C.): 0.78 µg/mL; MIC (Bacillus subtilis PCI219; [20]): 0.2 µg/mL; MIC [11]: 100 µg/mL; MIC [12]: 100 µg/mL; LD50 (in vivo): > 5000 mg/kg
6 | NC[C@@H]1CC[C@@H](N)[C@@H](O[C@H]2[C@H](O)[C@@H](O[C@H]3O[C@H](CO)[C@@H](O)[C@H](N)[C@H]3O)[C@H](N)C[C@@H]2N)O1 [DKB, 3',4'-dideoxykanamycin B, reference compound] | – | – | – | – | – | – | – | – | – | – | – | – | – | – | – | – | – | 1.56 (≈ 3.45 µM) | 0.78 (≈ 1.73 µM) | < 0.2 | ED50 [1]: 1.15 mg/kg; MIC (Mycobacterium 607): 0.39 µg/mL (≈ 0.864 µM); MIC [2]: 0.78 µg/mL (≈ 1.73 µM); MIC [3]: 0.78 µg/mL (≈ 1.73 µM); MIC [5, 18]: < 0.2 µg/mL; MIC ([6]; Pseudomonas aeruginosa, GN315, 41 h): > 100 µg/mL; MIC [7]: 0.78 µg/mL (≈ 1.73 µM); MIC [8]: 0.78 µg/mL (≈ 1.73 µM); MIC [9]: 0.78 µg/mL (≈ 1.73 µM); MIC [10]: 0.39 µg/mL (≈ 0.864 µM); MIC (Escherichia coli K-12; Escherichia coli, K12, 41 h): 0.78 µg/mL (≈ 1.73 µM); MIC (Bacillus subtilis PCI219; [20]): < 0.2 µg/mL; MIC [11]: 50 µg/mL (≈ 111 µM); MIC [12]: 50 µg/mL (≈ 111 µM); antibacterial potency (assumed reference value) (Bacillus subtilis; assumed value of the standard): 1000 units/mg; antibacterial activity [13]: high antibacterial activity against some kanamycin-resistant bacteria and Pseudomonas aeruginosa
7 | O=S(=O)(O)CNC[C@@H]1CC[C@@H](NCS(=O)(=O)O)[C@@H](O[C@H]2[C@H](O)[C@@H](O[C@H]3O[C@H](CO)[C@@H](O)[C@H](NCS(=O)(=O)O)[C@H]3O)[C@H](NCS(=O)(=O)O)C[C@@H]2NCS(=O)(=O)O)O1 [DKB-penta-N-methanesulfonic acid Na salt, 3',4'-dideoxykanamycin B-penta-N-methanesulfonic acid sodium salt] | – | – | – | – | – | – | – | – | – | – | – | – | – | – | – | – | – | 3.12 | 1.56 | 0.39 | ED50 [1]: 1.9 mg/kg; MIC ([5]; Staphylococcus aureus, 41 h): < 0.2 µg/mL; MIC [6, 19]: > 100 µg/mL; MIC [9]: 0.39 µg/mL; MIC [10]: 0.39 µg/mL; MIC (Bacillus subtilis PCI219; Bacillus subtilis, PCI219, 41 h): 0.2 µg/mL; MIC [11]: 100 µg/mL; MIC [12]: 100 µg/mL; antibacterial potency (Bacillus subtilis): 400 units/mg; LD50 (in vivo): > 5000 mg/kg
